Results reported in PubChem BioAssay AID1850 (Southern Research Specialized Biocontainment Screening …, 2009).
Where “and” joins values, the source holds several entries; their conditions need not be identical. Equal values may be shown once.

System: Salmonella Typhi PhoP-promoter GFP reporter, fluorescence, 4 h
Experiment: Inhibition of PhoP regulon, Salmonella typhi GFP reporter cells, confirmation, 4 h (AID 1850)

| Compound | IC50 |
| --- | --- |
| COC(=O)C1C(O)C(C)C(O)C(C)(O)/C=C\C=C(/C)C(=O)Nc2c(C)c(OC(C)=O)c3c(c2O)C(=O)C(C)=C2OCOC(=C23)/C(C)=C/C(C)(O)C(O)C(C)C1O (configuration not stated) | 27.3 µM |
| Cc1ccc(C(C[N+](=O)[O-])c2c(N)n(C)c(=O)n(C)c2=O)cc1 (configuration not stated) | 145 µM |
| O=C(N/N=C\c1ccc(Cl)s1)c1cccs1 | 78.5 µM |
| O=C(c1ccccc1)c1c2c(cc3sc4ccccc4[n+]13)-c1cccc3cccc-2c13 | 35.9 µM |
| O=C(/C=C/c1ccccc1Cl)c1ccccc(=O)c1O | 34.8 µM |
| CCCCCSc1cc(OC)c(CCNC)cc1OC | 89 µM |
| CCCNC(=O)c1cn(CC)c2cc(N3CCN(C)CC3)c(F)cc2c1=O | 13.4 µM |
| NC(=O)SCC(=O)Nc1ccc(Cl)c(Cl)c1 | 13.7 µM |
| CCCCCCCNC(=O)C1(CC2CC(c3ccc(Cl)cc3)=NO2)CCNCC1 (configuration not stated) | 37.4 µM |
| Clc1cccc(CN2CCc3c([nH]c4ccccc34)C2)c1Cl | 76.5 µM |
| C[C@H]1c2cccc(O)c2C(O)=C2C(=O)[C@]3(O)C(O)=C(C(N)=O)C(=O)[C@@H](N(C)C)[C@@H]3[C@@H](O)[C@@H]21 | 3.98 µM |
| CN1CCN(CCCN2c3ccccc3Sc3ccc(C(F)(F)F)cc32)CC1 | 46.4 µM |
| COc1ccc(C(=O)NC(=S)NNC(=O)c2cnccn2)cc1 | 92.4 µM |
| CCCCC(CC)CN=C(N)NC(N)=NCCCCCCN=C(N)NC(N)=NCC(CC)CCCC (configuration not stated) | 2.73 µM |
| NC1=NC[C@H](Cc2ccc(O)cc2)N1CCc1cccc2ccccc12 | 50.2 µM |
| O=C(C[n+]1cc(Br)cc2ccccc21)c1ccc(Cl)cc1 | 76.1 µM |
| C[n+]1c2n(c3ccccc31)N=C(c1ccc(-c3ccccc3)cc1)CS2 | 24.8 µM |
| Cc1ccc(C(=O)N/C(=C\c2ccc(-c3ccc(Cl)cc3)o2)C(=O)NCCCN(C)C)cc1 | 37.6 µM |
| O=C(CCN1CCN(c2ccccc2F)CC1)c1ccc(Br)cc1 | 39 µM |
| Cc1ccc(C(=O)O)cc1N=Cc1cc(Br)cc(Br)c1O | 27.4 µM |
| CC(C)(c1ccccc1)c1ccc(OCCCN2CCNCC2)cc1 | 56.2 µM |
| CC(C)(C)CC(C)(C)c1ccc(OCCOCC[N+](C)(C)Cc2ccccc2)cc1 | 20.4 µM |

| Compound | IC50 |
| --- | --- |
| CCCCCCCCCCOC(=O)Cn1c(COc2ccccc2C)[n+](C)c2ccccc21 | 13.2 µM |
| Fc1ccccc1CSc1ccc(-c2ccco2)nn1 | 133 µM |
| C#CCOCCOCCOCCNc1nc(N2CCN(C(=O)CCCCCCCCCCNC(=O)[C@H](CCCCN)n3cc(C)nn3)CC2)nc(N2CCN(C(=O)CCCCCCCCCCNC(=O)[C@H](CCCN=C(N)N)n3cc(C[C@@H](C)CC)nn3)CC2)n1 | 32.5 µM |
| CO[C@@]1(NC(=O)Cc2cccs2)C(=O)N2C(C(=O)O)=C(COC(N)=O)CS[C@@H]21 | 9.3 µM |
| Cc1ccc(C(=O)N/N=C\c2ccc([N+](=O)[O-])s2)cn1 | 18.6 µM |
| CC(=O)NC(=S)NNC(=O)c1ccc(Br)cc1 | 34.9 µM |
| CCCCCCCCCCn1c2c(c(=N)c3c1CCC3)CCC2 | 14.7 µM |
| CCCCn1c(NS(=O)(=O)c2ccccc2)c(S(=O)(=O)c2ccc(C)cc2)c2nc3ccccc3nc21 | 5.99 µM |
| CC/C(=N\Nc1ccnc2cc(Cl)ccc12)c1ccc(O)cc1 | 50.9 µM |
| O=[N+]([O-])c1cc(Cl)cc(/C=N/NC(=S)Nc2ccc(S(=O)(=O)N3CCOCC3)cc2)c1O | 80.3 µM |
| c1cnc2c(c1)ccc1cccnc12 | 49.3 µM and 39.1 µM |
| O=C(N/N=C/c1cc(Br)cc(Br)c1O)c1ccncc1 | 43.9 µM |
| CN(C)CCNC(=O)/C(=C/c1ccc(-c2ccc(Cl)cc2)o1)NC(=O)c1ccccc1 | 78 µM |
| O=C(CN1CC(c2ccccc2)CC1=O)N/N=C/c1cc(Br)ccc1O (configuration not stated) | 65.8 µM |
| O=C(NNc1nc2ccc(F)cc2s1)c1cccc(F)c1 | 76.8 µM |
| Cc1ccc2c(c1)C1CN(C)CCC1N2Sc1ccccc1[N+](=O)[O-] (configuration not stated) | 43.7 µM |
| C/C(=N/Nc1ccnc2cc(Cl)ccc12)c1ccc(N)cc1 | 30 µM |
| CN1CCN(CCCN2c3ccccc3Sc3ccc(Cl)cc32)CC1 | 56 µM and 34.7 µM |
| O=C(N/N=C/c1ccc([N+](=O)[O-])o1)C(O)c1ccccc1 (configuration not stated) | 35.2 µM |
| CCn1cc(C(=O)NCC(C)C)c(=O)c2cc(F)c(N3CCN(C)CC3)cc21 | 14.9 µM |
| O=C(C[n+]1cc(-c2ccc(Cl)c(Cl)c2)n2c1CCC2)N1c2ccccc2Sc2ccccc21 | 26.9 µM |
| CC(NCc1ccc(-c2ccccc2)cc1)C(O)c1ccccc1 (configuration not stated) | 63.6 µM |

| Compound | IC50 |
| --- | --- |
| COc1ccc(OCc2n(CC(=O)OC3CC(C)CCC3C(C)C)c3ccccc3[n+]2C)cc1 (configuration not stated) | 48.9 µM |
| Cc1cccc(Nc2cc(C)c3c(O)cccc3n2)c1C | 17.4 µM |
| C1=C(CCNCc2ccccc2)CCCC1 | 6.38 µM |
| O=C(NCCCN1CCN(c2ccc(F)cc2)CC1)Nc1ccc([N+](=O)[O-])cc1 | 76.1 µM |
| CC(=O)NC(c1cccs1)c1cc([N+](=O)[O-])c2cccnc2c1O (configuration not stated) | 31.7 µM |
| CN(C)CC/C=C1/c2ccccc2Sc2ccc(Cl)cc21 | 49.1 µM |
| O=C(N/N=C/c1sc2ccccc2c1O)c1cccc2ccccc12 | 70.5 µM |
| c1ccc2c(c1)OC(CCCN1CCCCC1)c1ccccc1S2 (configuration not stated) | 95.1 µM |
| O=C(Nc1nnc(C2COc3ccccc3O2)o1)c1ccc(F)cc1 (configuration not stated) | 36.5 µM |
| CC(C)(c1ccccc1)c1ccc(OCCCNCCO)cc1 | 72 µM |
| COc1ccc(CNCCc2ccc(Cl)cc2)cc1OCc1ccccc1 | 66.4 µM |
| CC[n+]1c(/C=C/N(C)c2ccccc2)n(-c2ccccc2)c2ccc(-c3nc4ccccc4s3)cc21 | 5.9 µM |
| Cc1cc(NC(=O)c2ccccc2)sc1C | 62.3 µM |
| Cc1ccc(-c2csc(NC(=O)C[n+]3cc(-c4ccc(C)cc4)n4c3CCC4)n2)cc1 | 25 µM |
| Oc1ccc(CN2CCN(c3ccccc3)CC2)c2cccnc12 | 147 µM |
| Cc1ccc(OCC(=O)N/N=C\c2c(C)[nH]n(-c3ccccc3)c2=O)c([N+](=O)[O-])c1 | 66.6 µM |
| CSc1nc2cc(Oc3cccc(Cl)c3Cl)c(Cl)cc2[nH]1 | 37.3 µM |
| O=C(NC(=S)NNC(=O)c1ccccc1O)c1ccco1 | 29.5 µM |
| C#CCOCCOCCOCCNc1nc(N2CCN(C(=O)CCCCCCCCCCNC(=O)Cn3cc(CCCCCN)nn3)CC2)nc(N2CCN(C(=O)CCCCCCCCCCNC(=O)[C@@H]([C@H](C)O)n3cc(C)nn3)CC2)n1 | 114 µM |
| Cc1ccc(C(C[N+](=O)[O-])Sc2ccc(N)cc2)cc1 (configuration not stated) | 55.1 µM |
| NC[C@@H]1O[C@H](C23CC4CC(CC(C4)C2)C3)Cc2c1ccc(O)c2O | 50.1 µM |
| CCCNC1=C(C)C(=O)C2=C(C1=O)C(COC(N)=O)[C@]1(OC)C3NC3CN21 (some centres not stated) | 15.9 µM |

| Compound | IC50 |
| --- | --- |
| CCC[C@H](CN[C@@H](CNC)[C@H](C)CC)NCCc1cc(C(F)(F)F)cc(C(F)(F)F)c1 | 34.6 µM |
| C#CCOCCOCCOCCNc1nc(N2CCN(C(=O)CCCCCCCCCCNC(=O)[C@H]([C@@H](C)CC)n3cc(CCCCCN)nn3)CC2)nc(N2CCN(C(=O)CCCCCCCCCCNC(=O)[C@H]([C@@H](C)CC)n3cc(CCCCN=C(N)N)nn3)CC2)n1 | 20.1 µM |
| COC12C(COC(N)=O)C3=C(C(=O)C(C)=C(N)C3=O)N1CC1C2N1C (configuration not stated) | 8.18 µM |
| Cc1cc(O)c2c(c1)C(=O)C13C(=C2O)C(=O)[C@H]2[C@@H](O)[C@@H]1[C@H]1[C@H](O)[C@@H]3C(=O)C3=C(O)c4c(O)cc(C)cc4C(=O)C312 (some centres not stated) | 5.14 µM |
| CCc1cccc2c(C(=O)COC(=O)c3ccc([N+](=O)[O-])s3)c[nH]c12 | 18.8 µM |
| C/C(=C\C(=O)OCCCCCCCCC(=O)O)C[C@@H]1OC[C@H](C[C@@H]2O[C@H]2[C@@H](C)[C@H](C)O)[C@@H](O)[C@H]1O | 13.1 µM |
| CCOC(=O)N1CCN(Cc2cc(Cl)c3cccnc3c2O)CC1 | 61.7 µM |
| CCCCCCCCC1=NCCc2c1[nH]c1ccccc21 | 63.1 µM |
| NC(=NCCCCCCN=C(N)/N=C(\N)Nc1ccc(Cl)cc1)/N=C(\N)Nc1ccc(Cl)cc1 | 5.4 µM and 7.69 µM and 5.26 µM |
| N=c1c2c(n(Cc3ccc(Cl)c(Cl)c3)c3c1CCC3)CCCC2 | 37.4 µM |
| O=C(CCc1ccccc1)NNC(=S)NC(=O)c1ccccc1 | 118 µM |
| NC(=O)SCC(=O)Nc1cccc(Cl)c1 | 9.08 µM |
| COc1ccc2[nH]c3c(C)c4ccncc4c(C)c3c2c1 | 20.5 µM |
| CCCCCCCCC[n+]1cccc2c3ccccc3ccc21 | 18.6 µM |
| CCCCCc1ccc(OCCCC[n+]2cccc(C)c2)c(CCCCC)c1 | 59.1 µM |
| O=C(C[n+]1cnn(CC(=O)c2ccc(Cl)cc2Cl)c1)c1ccc([N+](=O)[O-])cc1 | 37.4 µM |
| O=C(OCC(=O)N1CCOCC1)c1ccc[nH]c1=O | 36.6 µM |
| Cc1ccc2c(c1)c1c(n2CC(O)CN2CCC(C)CC2)CCCC1 (configuration not stated) | 78.3 µM |
| NC(=O)c1ccc(N=C2C(=O)Nc3ccc([N+](=O)[O-])cc32)cc1 | 34.6 µM |
| CN(C)CCNc1oc(COc2ccc(-c3ccccc3)cc2)nc1C#N | 59.2 µM |
| O=C(N[C@H](CO)[C@H](O)c1ccc([N+](=O)[O-])cc1)C(Cl)Cl | 4.85 µM |
| Cc1cccc2c1Sc1ccc(Cl)cc1CC2N1CCNCC1 (configuration not stated) | 78.5 µM |

| Compound | IC50 |
| --- | --- |
| Cc1ccc(C(C[N+](=O)[O-])n2nc(C)cc2C)cc1 (configuration not stated) | 75.1 µM |
| Brc1ccc2c(c1)C(OC1CN3CCC1CC3)c1ccccc1CS2 (configuration not stated) | 38.2 µM |
| Cc1ccccc1C(=O)Nc1cccc(C(=O)N/N=C/c2cc(Cl)cc([N+](=O)[O-])c2O)c1 | 47.6 µM |
| Cc1ccc(NC(=O)CN(C)C2CCCCC2)cc1Br | 81.2 µM |
| CC1(C)N=C(N)N=C(N)N1c1ccc(Oc2ccc(Cl)cc2)c(Cl)c1 | 33.8 µM |
| CCn1nc(C(=O)O)c(=O)c2cc3c(cc21)OCO3 | 34.6 µM |
| CC1=C([N+](=O)[O-])C(c2cccc(Br)c2)C2=C(N1)c1ccccc1C2=O (configuration not stated) | 18.2 µM |
| CCn1nnc(NC(=O)c2ccc([N+](=O)[O-])o2)n1 | 52.3 µM |
| COc1ccc(OCC(O)CNc2ccc(Br)cc2)cc1 (configuration not stated) | 5.72 µM |
| O=[N+]([O-])c1ccc(O)c(/C=N/Nc2ccccn2)c1 | 13.2 µM |
| NC(N)=N/N=C/c1ccc(OCc2ccc(Cl)cc2Cl)cc1 | 18.4 µM |
| Nc1nc(Nc2cccc(F)c2)nc2ccccc12 | 22.9 µM |
| Cc1cc(C)n(/N=C/c2cc([N+](=O)[O-])ccc2O)c(=O)c1 | 92 µM |
| COc1ccc(CCN2CCC(Nc3nc4ccccc4n3Cc3ccc(F)cc3)CC2)cc1 | 37.7 µM |
| CC1(C)N=C(N)NC(Nc2cccc(Br)c2)=N1 | 34.7 µM |
| N#C/C(=C\c1ccc[nH]1)C(=O)NC1CC1 | 73.8 µM |
| Oc1cccc(C=NCc2ccccc2)c1O | 51.3 µM |
| O=C(Cn1nc(C(F)F)cc1C(F)F)NNC(=S)Nc1ccc([N+](=O)[O-])cc1 | 139 µM |
| O=c1[nH]c(-c2ccccn2)nc(C(F)(F)F)c1Br | 70.2 µM |
